# Laboratory results published in patent US8858967B2, “Dermatological cream-gels containing avermectin compounds” (Galderma S.A., priority 2004, dated 2014).
# Test: Maximum solubility of ivermectin in solvents
# Type: physicochemical
# Description: By way of example of a solvent and/or a propenetrating agent for the ivermectin active agent, representative are propylene glycol, alcohols such as ethanol, isopropanol, butanol, benzyl alcohol, N-methyl-2-pyrrolidone or DMSO, polysorbate 80; phenoxyethanol, and mixtures thereof.
substance,measurement,setting,value
Ivermectin,Maximum % solubility of ivermectin in the solvent under consideration (weight/weight),solvent N-methyl-2-pyrrolidone,58.13 % (weight/weight)
same,Maximum % solubility of ivermectin in the solvent under consideration (weight/weight),solvent propylene glycol/oleic acid (4 parts/2 parts),27.31 % (weight/weight)
same,Maximum % solubility of ivermectin in the solvent under consideration (weight/weight),solvent propylene glycol/polysorbate 80/phenoxyethanol (4 parts/1 part/1 part),28.63 % (weight/weight)
